Measurements as given in patent US7368567B2, “Arylsulfonyl benzodioxanes, benzoxazines and benzothiazines as 5-HT6 antagonists” (Roche Palo Alto LLC, priority 2004, dated 2008).

Tests used:
[1] = biological target: T1, recombinant human 5-HT6 receptor (Homo sapiens, UniProt P50406); assay: Radioligand binding, [3H]LSD competition in HEK293 cell membranes; settings: [3H]LSD displacement, 37° C., pH 7.4, read-out: pKi for the 5-HT6 receptor (converted)
T1 construct: expressed in transfected cells
T1 sequence (P50406 whole entry): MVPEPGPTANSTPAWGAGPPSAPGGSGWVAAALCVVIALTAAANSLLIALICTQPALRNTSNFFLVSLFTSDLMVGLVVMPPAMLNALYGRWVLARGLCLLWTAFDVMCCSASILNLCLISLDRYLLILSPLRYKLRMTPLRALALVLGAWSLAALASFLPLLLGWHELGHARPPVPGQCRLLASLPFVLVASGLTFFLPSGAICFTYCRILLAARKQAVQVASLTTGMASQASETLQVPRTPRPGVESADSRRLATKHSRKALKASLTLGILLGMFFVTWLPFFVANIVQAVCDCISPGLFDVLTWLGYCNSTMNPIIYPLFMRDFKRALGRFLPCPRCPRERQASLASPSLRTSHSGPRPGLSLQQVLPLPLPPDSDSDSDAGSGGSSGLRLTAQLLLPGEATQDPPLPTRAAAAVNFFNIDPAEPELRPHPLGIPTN
Procedure: The binding activity of compounds of this invention in vitro was determined as follows. Duplicate determinations of 5-HT6 ligand affinity were made by competing for binding of [^3H]LSD in cell membranes derived from HEK293 cells stably expressing recombinant human 5-HT6 receptor. Duplicate determinations of 5-HT2A ligand affinity were made by competing for binding of [^3H]Ketanserin (3-(2-(4-(4-fluorobenzoyl)piperidinol)ethyl)-2,4(1H,3H)-quinazolinedione) in cell membranes derived from CHO—K1 cells stably expressing recombinant human 5-HT2A receptor. Membranes were prepared from HEK 293 cell lines by the method described by Monsma et al., Molecular Pharmacology, Vol. 43 pp. 320-327 (1993), and from CHO—K1 cell lines as described by Bonhaus et al., Br J Pharmacol. June;1 15(4):622-8 (1995).
For estimation of affinity at the 5-HT6 receptor, all determinations were made in assay buffer containing 50 mM Tris-HCl, 10 mM MgSO4, 0.5 mM EDTA, 1 mM ascorbic acid, pH 7.4 at 37° C., in a 250 microliter reaction volume. […]
Assay tubes containing [^3H] […] LSD or [^3H]Ketanserin were determined as radioactive counts per minute using Packard TopCount.
Displacement of [^3H]LSD or [^3H]Ketanserin from the binding sites was quantified by fitting concentration-binding data to a 4-parameter logistic equation: […]

Compound	melting point [°C]	Ki [1] [nM]
CNCC1COc2ccc(S(=O)(=O)c3ccccc3)cc2O1 (racemic) [Compound 1, (+−)-(7-Benzenesulfonyl-2,3-dihydro-benzo[1,4]dioxin-2-ylmethyl)-methyl-amine]	198 to 199.4	–
O=S(=O)(c1cccc(F)c1)c1ccc2c(c1)O[C@H](CN1CC1)CO2 (stereo in doubt)	215.4 to 217.2	–
O=S(=O)(c1ccccc1)c1ccc2c(c1)O[C@@H](CN1CC1)CO2 (stereo in doubt)	203.9 to 206.6	–
O=S(=O)(c1cccc(F)c1)c1ccc2c(c1)O[C@@H](CNCc1ccccc1)CO2 (stereo in doubt) [Compound 11, Benzyl-[7-(3-fluoro-benzenesulfonyl)-2,3-dihydro-benzo[1,4]dioxin-2-ylmethyl]-amine]	195.1 to 197.1	–
CNC[C@H]1COc2ccc(S(=O)(=O)c3ccc(C)cc3)cc2O1 (stereo in doubt) [Compound 12, Methyl-[7-(toluene-4-sulfonyl)-2,3-dihydro-benzo[1,4]dioxin-2-ylmethyl]-amine]	213 to 214.1	–
CCNC[C@@H]1COc2ccc(S(=O)(=O)c3cccc(F)c3)cc2O1 (stereo in doubt) [Compound 13, Ethyl-[7-(3-fluoro-benzenesulfonyl)-2,3-dihydro-benzo[1,4]dioxin-2-ylmethyl]-amine]	247.5 to 251.3	–
CN(C)C[C@@H]1COc2ccc(S(=O)(=O)c3cccc(F)c3)cc2O1 (stereo in doubt) [Compound 14, [7-(3-Fluoro-benzenesulfonyl)-2,3-dihydro-benzo[1,4]dioxin-2-ylmethyl]-dimethyl-amine]	228.7 to 231.3	–
CC(C)NC[C@@H]1COc2ccc(S(=O)(=O)c3cccc(F)c3)cc2O1 (stereo in doubt) [Compound 15, [7-(3-Fluoro-benzenesulfonyl)-2,3-dihydro-benzo[1,4]dioxin-2-ylmethyl]-isopropyl-amine]	242.4 to 243.8	–
O=S(=O)(c1cccc(F)c1)c1ccc2c(c1)O[C@H](CN1CCC1)CO2 (stereo in doubt) [Compound 16, 1-[7-(3-Fluoro-benzenesulfonyl)-2,3-dihydro-benzo[1,4]dioxin-2-ylmethyl]-azetidine]	100.8 to 108.3	–
COCCNC[C@@H]1COc2ccc(S(=O)(=O)c3cccc(F)c3)cc2O1 (stereo in doubt) [Compound 17, [7-(3-Fluoro-benzenesulfonyl)-2,3-dihydro-benzo[1,4]dioxin-2-ylmethyl]-(2-methoxy-ethyl)-amine]	193 to 196.9	–
O=S(=O)(c1ccccc1)c1ccc2c(c1)O[C@@H](CNCc1ccccc1)CO2 (stereo in doubt) [Compound 21, (7-Benzenesulfonyl-2,3-dihydro-benzo[1,4]dioxin-2-ylmethyl)-benzyl-amine]	220.9 to 224.9	–
CN(C)C[C@H]1COc2ccc(S(=O)(=O)c3ccccc3)cc2O1 (stereo in doubt) [Compound 23, (7-Benzenesulfonyl-2,3-dihydro-benzo[1,4]dioxin-2-ylmethyl)-dimethyl-amine]	232 to 233.5	–
CC(C)NC[C@H]1COc2ccc(S(=O)(=O)c3ccccc3)cc2O1 (stereo in doubt) [Compound 24, (7-Benzenesulfonyl-2,3-dihydro-benzo[1,4]dioxin-2-ylmethyl)-isopropyl-amine]	224.9 to 228.8	–
COCCNC[C@H]1COc2ccc(S(=O)(=O)c3ccccc3)cc2O1 (stereo in doubt) [Compound 26, (7-Benzenesulfonyl-2,3-dihydro-benzo[1,4]dioxin-2-ylmethyl)-(2-methoxy-ethyl)-amine]	169.3 to 171.9	–
CCNC[C@H]1COc2ccc(S(=O)(=O)c3ccccc3)cc2O1 (stereo in doubt) [Compound 27, (7-Benzenesulfonyl-2,3-dihydro-benzo[1,4]dioxin-2-ylmethyl)-ethyl-amine]	242.2 to 246.7	–
CNC[C@@H]1COc2ccc(S(=O)(=O)c3cccc(C)c3)cc2O1 (stereo in doubt) [Compound 28, Methyl-[7-(toluene-3-sulfonyl)-2,3-dihydro-benzo[1,4]dioxin-2-ylmethyl]-amine]	99.9 to 106.1	–

Compound	melting point [°C]	Ki [1] [nM]
CNC[C@@H]1COc2ccc(S(=O)(=O)c3ccccc3C)cc2O1 (stereo in doubt) [Compound 29, Methyl-[7-(toluene-2-sulfonyl)-2,3-dihydro-benzo[1,4]dioxin-2-ylmethyl]-amine]	169 to 170.8	–
O=S(=O)(c1ccccc1)c1ccc2c(c1)O[C@@H](CN1CCNCC1)CO2 (stereo in doubt) [Compound 30, 1-(7-Benzenesulfonyl-2,3-dihydro-benzo[1,4]dioxin-2-ylmethyl)-piperazine]	279.2 to 279.4	–
N=C(N)NC[C@H]1COc2ccc(S(=O)(=O)c3ccccc3)cc2O1 (stereo in doubt) [Compound 31, N-(7-Benzenesulfonyl-2,3-dihydro-benzo[1,4]dioxin-2-ylmethyl)-guanidine]	126.5 to 128.3	–
CN(O)C[C@H]1COc2ccc(S(=O)(=O)c3ccccc3)cc2O1 (stereo in doubt) [Compound 33, N-(7-Benzenesulfonyl-2,3-dihydro-benzo[1,4]dioxin-2-ylmethyl)-N-methylhydroxylamine]	199.2 to 200.8	–
O=S(=O)(c1ccccc1)c1ccc2c(c1)O[C@@H](Cn1ccnc1)CO2 (stereo in doubt) [Compound 34, 1-(7-Benzenesulfonyl-2,3-dihydro-benzo[1,4]dioxin-2-ylmethyl)-1H-imidazole]	88 to 90	–
O=S(=O)(c1ccccc1)c1ccc2c(c1)O[C@@H](CN1CCC(O)C1)CO2 (stereo in doubt) [Compound 37, 1-(7-Benzenesulfonyl-2,3-dihydro-benzo[1,4]dioxin-2-ylmethyl)-pyrrolidin-3-ol]	94.7 to 96.4	–
CNC[C@H]1COc2ccc(S(=O)(=O)c3cccc(C#N)c3)cc2O1 (stereo in doubt) [Compound 38, 3-(3-Methylaminomethyl-2,3-dihydro-benzo[1,4]dioxine-6-sulfonyl)-benzonitrile]	190.6 to 192.1	–
NC(=O)NC[C@H]1COc2ccc(S(=O)(=O)c3ccccc3)cc2O1 (stereo in doubt) [Compound 40, (7-Benzenesulfonyl-2,3-dihydro-benzo[1,4]dioxin-2-ylmethyl)-urea]	104.9 to 105.7	–
CNC[C@@H]1COc2ccc(S(=O)(=O)c3ccccc3)cc2O1 [(7-Benzenesulfonyl-2,3-dihydro-benzo[1,4]dioxin-2-(R)-ylmethyl)-methyl-amine]	–	~0.166
CNC[C@H]1COc2ccc(S(=O)(=O)c3ccccc3)cc2O1 [Compound 2, (7-Benzenesulfonyl-2,3-dihydro-benzo[1,4]dioxin-2--(S)-ylmethyl)-methyl-amine]	240 to 243.6	–
CNC[C@@H]1COc2cc(S(=O)(=O)c3ccccc3)ccc2O1 [Compound 4, (6-Benzenesulfonyl-2,3-dihydro-benzo[1,4]dioxin-2-(R)-ylmethyl)-methyl-amine]	219.7 to 225.4	–
CNC[C@H]1COc2cc(S(=O)(=O)c3ccccc3)ccc2O1 [Compound 5, (6-Benzenesulfonyl-2,3-dihydro-benzo[1,4]dioxin-2-(S)-ylmethyl)-methyl-amine]	218.2 to 220.5	–
CNC[C@@H]1COc2ccc(S(=O)(=O)c3cccc(F)c3)cc2O1 [Compound 8, [7-(3-Fluoro-benzenesulfonyl)-2,3-dihydro-benzo[1,4]dioxin-2-(R)-ylmethyl]-methyl-amine]	250.1 to 254.3	–
NC[C@H]1COc2ccc(S(=O)(=O)c3cccc(F)c3)cc2O1 [Compound 9, C-[7-(3-Fluoro-benzenesulfonyl)-2,3-dihydro-benzo[1,4]dioxin-2-(S)-yl]-methylamine]	224.9 to 227.9	–
O=S(=O)(c1ccccc1)c1ccc2c(c1)O[C@H](CN1CCCC1)CO2 [Compound 10, 1-(7-Benzenesulfonyl-2,3-dihydro-benzol[1,4]dioxin-2-(R)-ylmethyl)-pyrrolidine]	75.8 to 112.7	–
